Experimental data reported in ChEMBL document CHEMBL1122447, “2-Acetylpyridine thiosemicarbazones. 5. 1-[1-(2-Pyridyl)ethyl]-3-thiosemicarbazides as potential antimalarial agents” (1983).

What was measured:
Plasmodium berghei [1] = test: Increased mean survival time in drug-sensitive Plasmodium berghei infected mice (Mus musculus) at 640 mg/kg; toxic in 4 of 5; type: functional
Plasmodium berghei [2] = test: Increased mean survival time in drug-sensitive Plasmodium berghei infected mice (Mus musculus) at 80 mg/kg; cured 3 of 5; type: functional, organism-based; parameters: dose 80 mg/kg
Plasmodium berghei [3] = test: Increased mean survival time in drug-sensitive Plasmodium berghei infected mice (Mus musculus) at 160 mg/kg; cured 5 of 5; type: functional, organism-based; parameters: dose 160 mg/kg
Plasmodium berghei [4] = test: Increased mean survival time in drug-sensitive Plasmodium berghei infected mice (Mus musculus) at 20 mg/kg; cured 1 of 5; type: functional, organism-based; parameters: dose 20 mg/kg
Plasmodium berghei [5] = test: Increased mean survival time in drug-sensitive Plasmodium berghei infected mice (Mus musculus) at 320 mg/kg dose; type: functional
Plasmodium berghei [6] = test: Increased mean survival time in drug-sensitive Plasmodium berghei infected mice (Mus musculus) at 40 mg/kg; cured 3 of 5; type: functional, organism-based; parameters: dose 40 mg/kg
Plasmodium berghei [7] = test: Increased mean survival time in drug-sensitive Plasmodium berghei infected mice (Mus musculus) at 320 mg/kg; cured 2 of 5; type: functional, organism-based; parameters: dose 320 mg/kg
Plasmodium berghei [8] = test: Increased mean survival time in drug-sensitive Plasmodium berghei infected mice (Mus musculus) at 40 mg/kg dose; type: functional
Plasmodium berghei [9] = test: Increased mean survival time in drug-sensitive Plasmodium berghei infected mice (Mus musculus) at 80 mg/kg; cures 4 of 5; type: functional, organism-based; parameters: dose 80 mg/kg
Plasmodium berghei [10] = test: Increased mean survival time in drug-sensitive Plasmodium berghei infected mice (Mus musculus) at 640 mg/kg; cured 2 of 5; type: functional, organism-based; parameters: dose 640 mg/kg
Plasmodium berghei [11] = test: Increased mean survival time in drug-sensitive Plasmodium berghei infected mice (Mus musculus) at 160 mg/kg; cured 3 of 5; type: functional, organism-based; parameters: dose 160 mg/kg
Plasmodium berghei [12] = test: Increased mean survival time in drug-sensitive Plasmodium berghei infected mice (Mus musculus) at 160 mg/kg; cured 4 of 5; type: functional, organism-based; parameters: dose 160 mg/kg
Plasmodium berghei [13] = test: Increased mean survival time in drug-sensitive Plasmodium berghei infected mice (Mus musculus) at 40 mg/kg; cured 1 of 5; type: functional, organism-based; parameters: dose 40 mg/kg
Plasmodium berghei [14] = test: Antimalarial activity against Plasmodium berghei infected mice (Mus musculus) at 640 mg/kg; toxic in 5 of 5; type: functional, organism-based; parameters: dose 640 mg/kg
Plasmodium berghei [15] = test: Increased mean survival time in drug-sensitive Plasmodium berghei infected mice (Mus musculus) at 640 mg/kg; cured 5 of 5; type: functional, organism-based; parameters: dose 640 mg/kg
Plasmodium berghei [16] = test: Increased mean survival time in drug-sensitive Plasmodium berghei infected mice (Mus musculus) at 320 mg/kg; cured 5 of 5; type: functional, organism-based; parameters: dose 320 mg/kg
Plasmodium berghei [17] = test: Increased mean survival time in drug-sensitive Plasmodium berghei infected mice (Mus musculus) at 80 mg/kg; cured 1 of 5; type: functional, organism-based; parameters: dose 80 mg/kg
Plasmodium berghei [18] = test: Increased mean survival time in drug-sensitive Plasmodium berghei infected mice (Mus musculus) at 640 mg/kg; cured 3 of 5; type: functional, organism-based; parameters: dose 640 mg/kg
Plasmodium berghei [19] = test: Increased mean survival time in drug-sensitive Plasmodium berghei in mice (Mus musculus) at 80 mg/kg dose; type: functional
Plasmodium berghei [20] = test: Increase in mean survival time in drug-sensitive Plasmodium berghei infected mice (Mus musculus) at 160 mg/kg dose; cured 1 of 5; type: functional, organism-based; parameters: dose 160 mg/kg
Plasmodium berghei [21] = test: Increased mean survival time in drug-sensitive Plasmodium berghei infected mice (Mus musculus) at 20 mg/kg dose; type: functional
Plasmodium berghei [22] = test: Increased mean survival time in drug-sensitive Plasmodium berghei infected mice (Mus musculus) at 640 mg/kg; toxic in 5 of 5; type: functional, organism-based; parameters: dose 640 mg/kg
Plasmodium berghei [23] = test: Increased mean survival time in drug-sensitive Plasmodium berghei infected mice (Mus musculus) at 160 mg/kg; toxic in 5 of 5; type: functional, organism-based; parameters: dose 160 mg/kg
Plasmodium berghei [24] = test: Increased mean survival time in drug-sensitive Plasmodium berghei infected mice (Mus musculus) at 640 mg/kg; toxic in 2 of 5; type: functional
Plasmodium berghei [25] = test: Increase in mean survival time in drug-sensitive Plasmodium berghei infected mice (Mus musculus) at 160 mg/kg dose; type: functional
Plasmodium berghei [26] = test: Antimalarial activity against Plasmodium berghei infected mice (Mus musculus) at 160 mg/kg; cured 1 of 5; type: functional, organism-based; parameters: dose 160 mg/kg
Plasmodium berghei [27] = test: Antimalarial activity against Plasmodium berghei infected mice (Mus musculus) at 160 mg/kg; toxic in 3 of 5; type: functional, organism-based; parameters: dose 160 mg/kg
Plasmodium berghei [28] = test: Increased mean survival time in drug-sensitive Plasmodium berghei infected mice (Mus musculus) at 40 mg/kg; active; type: functional
Plasmodium berghei [29] = test: Antimalarial activity against Plasmodium berghei infected mice (Mus musculus) at 320 mg/kg; toxic in 5 of 5; type: functional, organism-based; parameters: dose 320 mg/kg
Plasmodium berghei [30] = test: Antimalarial activity against Plasmodium berghei in mice (Mus musculus) at 40 mg/kg; toxic in 3 of 5; type: functional, organism-based; parameters: dose 40 mg/kg
Plasmodium berghei [31] = test: Increased mean survival time in drug-sensitive Plasmodium berghei infected mice (Mus musculus) at 80 mg/kg; cured 5 of 5; type: functional, organism-based; parameters: dose 80 mg/kg
Plasmodium berghei [32] = test: Increased mean survival time in drug-sensitive Plasmodium berghei infected mice (Mus musculus) at 40 mg/kg; cured 4 of 5; type: functional, organism-based; parameters: dose 40 mg/kg
Plasmodium berghei [33] = test: Increased mean survival time in drug-sensitive Plasmodium berghei infected mice (Mus musculus) at 160 mg/kg; cured 2 of 5; type: functional, organism-based; parameters: dose 160 mg/kg
Plasmodium berghei [34] = test: Increased mean survival time in drug-sensitive Plasmodium berghei infected mice (Mus musculus) at 20 mg/kg; cured 3 of 5; type: functional, organism-based; parameters: dose 20 mg/kg
Plasmodium berghei [35] = test: Antimalarial activity as increased MST in Plasmodium berghei infected mice (Mus musculus) at 20 mg/kg; type: functional
Plasmodium berghei [36] = test: Antimalarial activity as increased MST in Plasmodium berghei infected mice (Mus musculus) at 40 mg/kg; Toxic in 1 of 5; type: functional

`C/C(=N\N=C(/S)N1CC2CCC(CC2)C1)c1ccccn1` was tested, and the Survival time (Plasmodium berghei [1]) was 0.4 days, the Survival time (Plasmodium berghei [2]) was “Cured 3 of 5 mice” and the Survival time (Plasmodium berghei [3]) was “Cured 5 of 5 mice”. For the same compound, the Survival time (Plasmodium berghei [4]) was “Cured 1 of 5 mice”, the Survival time (Plasmodium berghei [5]) was 0.2 days and the Survival time (Plasmodium berghei [6]) was “Cured 3 of 5 mice”.
With `C/C(=N\NC(=S)N1CCCCCC1)c1ccccn1` the Survival time (Plasmodium berghei [7]) was “Cured 2 of 5 mice; toxic in 2 of 5 mice”, the Survival time (Plasmodium berghei [8]) was 6.2 days and the Survival time (Plasmodium berghei [9]) was “Cured 4 of 5 mice”. The Survival time (Plasmodium berghei [10]) was “Cured 2 of 5 mice; toxic in 3 of 5 mice” and the Survival time (Plasmodium berghei [11]) was “Cured 3 of 5 mice; toxic in 1 of 5 mice”.
For `CC(N/N=C(\S)N1CCC(c2ccccc2)CC1)c1ccccn1` (configuration not stated), the Survival time (Plasmodium berghei [12]) was “Cured 4 of 5 mice”, the Survival time (Plasmodium berghei [13]) was “Cured 1 of 5 mice” and the Survival time (Plasmodium berghei [14]) was “Toxic in 5 of 5 mice”.
In the case of `C/C(=N\N=C(/S)N1CCC(c2ccccc2)CC1)c1ccccn1`, the Survival time (Plasmodium berghei [15]) is reported as “Cured 5 of 5 mice”, the Survival time (Plasmodium berghei [16]) is reported as “Cured 5 of 5 mice” and the Survival time (Plasmodium berghei [8]) is reported as 0.4 days. For the same compound, the Survival time (Plasmodium berghei [11]) was “Cured 3 of 5 mice” and the Survival time (Plasmodium berghei [17]) was “Cured 1 of 5 mice”.
`C/C(=N\N=C(/[SeH])N1CC2CCC(CC2)C1)c1ccccn1` was tested, and the Survival time (Plasmodium berghei [18]) was “Cured 3 of 5 mice”, the Survival time (Plasmodium berghei [19]) was 5.9 days and the Survival time (Plasmodium berghei [7]) was “Cured 2 of 5 mice”. The Survival time (Plasmodium berghei [8]) was 0.8 days, the Survival time (Plasmodium berghei [20]) was “Cured 1 of 5 mice” and the Survival time (Plasmodium berghei [21]) was -0.1 days.
For `C/C(=N\N=C(/S)N1CCC(C)CC1)c1ccccn1`, the Survival time (Plasmodium berghei [22]) was “Toxic in 5 of 5 mice”, the Survival time (Plasmodium berghei [23]) was “Toxic in 5 of 5 mice” and the Survival time (Plasmodium berghei [6]) was “Cured 3 of 5 mice”.
`C/C(=N\N=C(/S)NCc1ccccc1)c1ccccn1` was tested, and the Survival time (Plasmodium berghei [24]) was 10.6 days, the Survival time (Plasmodium berghei [8]) was 0.5 days and the Survival time (Plasmodium berghei [25]) was 3.7 days.
In the case of `CC(N/N=C(\S)N1CCCC1)c1ccccn1` (configuration not stated), the Survival time (Plasmodium berghei [8]) is reported as 5.2 days, the Survival time (Plasmodium berghei [26]) is reported as “Cured 1 of 5 mice” and the Survival time (Plasmodium berghei [27]) is reported as “Toxic in 3 of 5 mice”. For the same compound, the Survival time (Plasmodium berghei [14]) was “Toxic in 5 of 5 mice” and the Survival time (Plasmodium berghei [21]) was 1.3 days.
With `CCOC(=O)N1CCN(/C(S)=N/NC(C)c2ccccn2)CC1` (configuration not stated) the Survival time (Plasmodium berghei [28]) was 7.2 days, the Survival time (Plasmodium berghei [27]) was “Toxic in 5 of 5 mice” and the Survival time (Plasmodium berghei [29]) was “Toxic in 5 of 5 mice”. The Survival time (Plasmodium berghei [30]) was “Toxic in 3 of 5 mice”, the Survival time (Plasmodium berghei [14]) was “Toxic in 5 of 5 mice” and the Survival time (Plasmodium berghei [21]) was 5.9 days.
In the case of `C/C(=N\NC(=S)N1CCN(c2ccccn2)CC1)c1ccccn1`, the Survival time (Plasmodium berghei [22]) is reported as “Toxic in 5 of 5 mice”, the Survival time (Plasmodium berghei [31]) is reported as “Cured 5 of 5 mice” and the Survival time (Plasmodium berghei [32]) is reported as “Cured 4 of 5 mice”. For the same compound, the Survival time (Plasmodium berghei [33]) was “Cured 2 of 5 mice”, the Survival time (Plasmodium berghei [34]) was “Cured 3 of 5 mice” and the Survival time (Plasmodium berghei [5]) was 0.7 days.
In the case of `CC(N/N=C(\S)N(C)C)c1ccccn1` (configuration not stated), the Survival time (Plasmodium berghei [29]) is reported as “Toxic in 5 of 5 mice”, the Survival time (Plasmodium berghei [14]) is reported as “Toxic in 5 of 5 mice” and the Survival time (Plasmodium berghei [35]) is reported as 2 days. It also gave a Survival time (Plasmodium berghei [36]) of 3.2 days.
